Source: patent US8273527B2, “Viral variants” (priority 1999, dated 2012)

Tests used:
duck HBV = settings: in vitro; cited from earlier work
[1] = molecular target: HBV DNA polymerase-reverse transcriptase (Hepatitis B virus genotype D subtype ayw, UniProt P03156); settings: in vitro; cited from earlier work
HBV [2] = settings: in vitro; cited from earlier work
HBV [3] = settings: one patient with severe hepatitis B following OLT; cited from earlier work
duck HBV virus = settings: oral, in vivo; cited from earlier work
HBV [4] = assay: FCV prophylaxis liver transplantation trial (response pre-OLT, HBV recurrence post-OLT); format: in vivo, patients
Excerpt: The clinical details of the FCV prophylaxis liver transplantation protocol as previously described (19). Briefly, the aim of the study was to compare the safety and efficacy of oral FCV and IV penciclovir in reducing the risk of hepatitis B re-infection post-OLT in liver transplant patients. The study design was a multicentre, randomized, part double-blind, part placebo controlled trial in patients with end stage liver disease requiring OLT. Patients with HBV DNA levels more than 90 pg/ml at study entry (by hybridization) [high replicators] were treated with both FCV and HBIG post-OLT. These high replicators were treated with FCV (500 mg tds) to reduce HBV DNA levels prior to OLT. Famciclovir treatment was continued for 12 months post-OLT. An untreated control group of patients with HBV DNA levels less than 90 pg/ml [low replicators] at study entry were treated with HBIG alone post-OLT. In the original study, thirty six patients underwent OLT, and of these the clinical and virological outcome of twenty-two of the FCV treated patients has recently been presented (17 Manns).
Twenty six patients who had HBV levels more than 90 pg/ml at study entry (high HBV replicator [HR]) were treated with FCV pre-OLT and those patients who responded were then treated with HBIG plus FCV post-OLT. […]

HBV DNA polymerase-reverse transcriptase, sequence (P03156 whole entry): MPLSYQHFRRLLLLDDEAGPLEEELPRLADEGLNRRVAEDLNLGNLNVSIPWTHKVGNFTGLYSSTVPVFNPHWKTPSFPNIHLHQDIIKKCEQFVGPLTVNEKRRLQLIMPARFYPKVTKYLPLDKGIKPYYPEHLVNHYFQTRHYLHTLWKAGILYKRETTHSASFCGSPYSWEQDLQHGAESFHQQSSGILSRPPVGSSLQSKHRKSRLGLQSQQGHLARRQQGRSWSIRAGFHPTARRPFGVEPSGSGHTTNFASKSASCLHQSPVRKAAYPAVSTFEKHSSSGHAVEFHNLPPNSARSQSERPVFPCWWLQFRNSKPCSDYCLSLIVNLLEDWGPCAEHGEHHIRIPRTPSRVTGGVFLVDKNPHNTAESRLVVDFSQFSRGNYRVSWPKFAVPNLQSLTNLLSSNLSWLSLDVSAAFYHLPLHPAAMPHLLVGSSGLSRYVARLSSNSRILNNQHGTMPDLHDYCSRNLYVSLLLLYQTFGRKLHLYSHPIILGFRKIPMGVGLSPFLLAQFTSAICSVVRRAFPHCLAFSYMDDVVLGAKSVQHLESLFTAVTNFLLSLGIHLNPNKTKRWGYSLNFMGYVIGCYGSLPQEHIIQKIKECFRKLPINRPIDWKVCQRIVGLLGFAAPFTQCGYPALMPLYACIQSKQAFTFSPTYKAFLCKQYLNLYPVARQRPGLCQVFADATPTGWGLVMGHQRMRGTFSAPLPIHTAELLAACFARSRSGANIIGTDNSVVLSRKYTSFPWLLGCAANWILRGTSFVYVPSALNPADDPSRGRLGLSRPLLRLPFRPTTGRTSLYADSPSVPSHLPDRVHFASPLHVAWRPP

Nc1nc2c(ncn2CCC(CO)CO)c(=O)[nH]1 [Penciclovir, penciclovir]
inhibitory activity against duck HBV DNA synthesis (duck HBV): potent inhibitory activity
inhibition of HBV DNA polymerase-reverse transcriptase activity [1]: inhibit

Nc1ncnc2c1ncn2CCOCP(=O)(O)O [Adefovir]
anti-HBV activity (HBV [2]): effective anti-HBV activity

CC(=O)OCC(CCn1cnc2cnc(N)nc21)COC(C)=O [FCV, famciclovir]
effect on HBV DNA replication (HBV [3]): reduce HBV DNA replication
inhibition of intra-hepatic replication of duck HBV virus (duck HBV virus): inhibit
patients who responded to FCV (HBV [4]; of 26 high HBV replicators (HBV more than 90 pg/ml at study entry) treated with FCV pre-OLT): 19 patients
patients who did not initially respond to FCV (HBV [4]; of the initial 26 high HBV replicators treated with FCV pre-OLT): 6 patients
